In article PMC8689225, “Cardiac ryanodine receptor N-terminal region biosensors identify novel inhibitors via FRET-based high-throughput screening” (The Journal of Biological Chemistry, 2021):

Legend:
NTR of mouse RyR2 = target: T1, NTR of mouse RyR2 (Mus musculus, UniProt E9Q401); test: Surface plasmon resonance with isolated NTR (His-MBP tag); format: binding
T1 construct: The NTR of mouse RyR2 (residues 1–547) was cloned and expressed as previously described; made in house; host or cells: Escherichia coli Rosetta (DE3) pLacI
T1 sequence (E9Q401 1-547): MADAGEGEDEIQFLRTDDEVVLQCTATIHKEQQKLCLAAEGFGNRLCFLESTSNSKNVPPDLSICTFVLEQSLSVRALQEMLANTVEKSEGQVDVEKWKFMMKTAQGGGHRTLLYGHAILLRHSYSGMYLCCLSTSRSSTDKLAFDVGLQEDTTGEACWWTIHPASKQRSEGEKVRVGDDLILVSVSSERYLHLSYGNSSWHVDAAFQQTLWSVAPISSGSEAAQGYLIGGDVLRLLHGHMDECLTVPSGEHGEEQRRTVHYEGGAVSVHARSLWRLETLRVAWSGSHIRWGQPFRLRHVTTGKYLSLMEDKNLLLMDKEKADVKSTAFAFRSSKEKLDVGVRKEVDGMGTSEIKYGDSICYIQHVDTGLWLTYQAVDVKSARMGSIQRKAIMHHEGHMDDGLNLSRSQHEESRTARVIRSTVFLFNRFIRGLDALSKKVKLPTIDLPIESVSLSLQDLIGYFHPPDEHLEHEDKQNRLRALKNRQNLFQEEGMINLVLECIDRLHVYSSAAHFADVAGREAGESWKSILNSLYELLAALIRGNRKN
Method: The SPR experiments were performed using a BIACORE S200 (GE Healthcare) equipped with a NTA sensor chip. NTR with His and MBP tags (>90% pure based on SDS-PAGE) was immobilized using affinity of the His tag to the sensor surface. The surfaces of the sensor chip were activated with 0.5 mM Ni^2+ solution at a flow rate of 10 μl/min. The NTR at a concentration of 30 μg/ml in 10 mM HEPES, 150 mM KCl, pH 7.4, was immobilized on flow cell 2; flow cell 1 was left blank to serve as a reference surface. To collect kinetic binding data, the hits in the running buffer (10 mM HEPES, 150 mM NaCl, 0.05% P20, pH 7.4, 1% DMSO) were injected over the two flow cells at concentrations of 1.5625, 3.125, 6.25, 12.5, 25, 50, and 100 μM at a flow rate of 30 μl/min and at a temperature of 25 °C. The complex was allowed to associate and dissociate for 60 and 60 s, respectively. The surfaces were regenerated with a 120 s injection of 350 mM EDTA. Data were collected at a rate of 1 Hz. The data were fit using the global data analysis option available within Biacore S200 Evaluation 1.0 software.

RyR2 = target: T2, RyR2 (Mus musculus, UniProt E9Q401); test: Ca2+ sparks in saponin-permeabilized ventricular cardiomyocytes; format: cell-based
T2 construct: endogenous in cells; host or cells: ventricular cardiomyocytes of male C57BL/6J mice, saponin-permeabilized
T2 sequence (E9Q401 whole entry): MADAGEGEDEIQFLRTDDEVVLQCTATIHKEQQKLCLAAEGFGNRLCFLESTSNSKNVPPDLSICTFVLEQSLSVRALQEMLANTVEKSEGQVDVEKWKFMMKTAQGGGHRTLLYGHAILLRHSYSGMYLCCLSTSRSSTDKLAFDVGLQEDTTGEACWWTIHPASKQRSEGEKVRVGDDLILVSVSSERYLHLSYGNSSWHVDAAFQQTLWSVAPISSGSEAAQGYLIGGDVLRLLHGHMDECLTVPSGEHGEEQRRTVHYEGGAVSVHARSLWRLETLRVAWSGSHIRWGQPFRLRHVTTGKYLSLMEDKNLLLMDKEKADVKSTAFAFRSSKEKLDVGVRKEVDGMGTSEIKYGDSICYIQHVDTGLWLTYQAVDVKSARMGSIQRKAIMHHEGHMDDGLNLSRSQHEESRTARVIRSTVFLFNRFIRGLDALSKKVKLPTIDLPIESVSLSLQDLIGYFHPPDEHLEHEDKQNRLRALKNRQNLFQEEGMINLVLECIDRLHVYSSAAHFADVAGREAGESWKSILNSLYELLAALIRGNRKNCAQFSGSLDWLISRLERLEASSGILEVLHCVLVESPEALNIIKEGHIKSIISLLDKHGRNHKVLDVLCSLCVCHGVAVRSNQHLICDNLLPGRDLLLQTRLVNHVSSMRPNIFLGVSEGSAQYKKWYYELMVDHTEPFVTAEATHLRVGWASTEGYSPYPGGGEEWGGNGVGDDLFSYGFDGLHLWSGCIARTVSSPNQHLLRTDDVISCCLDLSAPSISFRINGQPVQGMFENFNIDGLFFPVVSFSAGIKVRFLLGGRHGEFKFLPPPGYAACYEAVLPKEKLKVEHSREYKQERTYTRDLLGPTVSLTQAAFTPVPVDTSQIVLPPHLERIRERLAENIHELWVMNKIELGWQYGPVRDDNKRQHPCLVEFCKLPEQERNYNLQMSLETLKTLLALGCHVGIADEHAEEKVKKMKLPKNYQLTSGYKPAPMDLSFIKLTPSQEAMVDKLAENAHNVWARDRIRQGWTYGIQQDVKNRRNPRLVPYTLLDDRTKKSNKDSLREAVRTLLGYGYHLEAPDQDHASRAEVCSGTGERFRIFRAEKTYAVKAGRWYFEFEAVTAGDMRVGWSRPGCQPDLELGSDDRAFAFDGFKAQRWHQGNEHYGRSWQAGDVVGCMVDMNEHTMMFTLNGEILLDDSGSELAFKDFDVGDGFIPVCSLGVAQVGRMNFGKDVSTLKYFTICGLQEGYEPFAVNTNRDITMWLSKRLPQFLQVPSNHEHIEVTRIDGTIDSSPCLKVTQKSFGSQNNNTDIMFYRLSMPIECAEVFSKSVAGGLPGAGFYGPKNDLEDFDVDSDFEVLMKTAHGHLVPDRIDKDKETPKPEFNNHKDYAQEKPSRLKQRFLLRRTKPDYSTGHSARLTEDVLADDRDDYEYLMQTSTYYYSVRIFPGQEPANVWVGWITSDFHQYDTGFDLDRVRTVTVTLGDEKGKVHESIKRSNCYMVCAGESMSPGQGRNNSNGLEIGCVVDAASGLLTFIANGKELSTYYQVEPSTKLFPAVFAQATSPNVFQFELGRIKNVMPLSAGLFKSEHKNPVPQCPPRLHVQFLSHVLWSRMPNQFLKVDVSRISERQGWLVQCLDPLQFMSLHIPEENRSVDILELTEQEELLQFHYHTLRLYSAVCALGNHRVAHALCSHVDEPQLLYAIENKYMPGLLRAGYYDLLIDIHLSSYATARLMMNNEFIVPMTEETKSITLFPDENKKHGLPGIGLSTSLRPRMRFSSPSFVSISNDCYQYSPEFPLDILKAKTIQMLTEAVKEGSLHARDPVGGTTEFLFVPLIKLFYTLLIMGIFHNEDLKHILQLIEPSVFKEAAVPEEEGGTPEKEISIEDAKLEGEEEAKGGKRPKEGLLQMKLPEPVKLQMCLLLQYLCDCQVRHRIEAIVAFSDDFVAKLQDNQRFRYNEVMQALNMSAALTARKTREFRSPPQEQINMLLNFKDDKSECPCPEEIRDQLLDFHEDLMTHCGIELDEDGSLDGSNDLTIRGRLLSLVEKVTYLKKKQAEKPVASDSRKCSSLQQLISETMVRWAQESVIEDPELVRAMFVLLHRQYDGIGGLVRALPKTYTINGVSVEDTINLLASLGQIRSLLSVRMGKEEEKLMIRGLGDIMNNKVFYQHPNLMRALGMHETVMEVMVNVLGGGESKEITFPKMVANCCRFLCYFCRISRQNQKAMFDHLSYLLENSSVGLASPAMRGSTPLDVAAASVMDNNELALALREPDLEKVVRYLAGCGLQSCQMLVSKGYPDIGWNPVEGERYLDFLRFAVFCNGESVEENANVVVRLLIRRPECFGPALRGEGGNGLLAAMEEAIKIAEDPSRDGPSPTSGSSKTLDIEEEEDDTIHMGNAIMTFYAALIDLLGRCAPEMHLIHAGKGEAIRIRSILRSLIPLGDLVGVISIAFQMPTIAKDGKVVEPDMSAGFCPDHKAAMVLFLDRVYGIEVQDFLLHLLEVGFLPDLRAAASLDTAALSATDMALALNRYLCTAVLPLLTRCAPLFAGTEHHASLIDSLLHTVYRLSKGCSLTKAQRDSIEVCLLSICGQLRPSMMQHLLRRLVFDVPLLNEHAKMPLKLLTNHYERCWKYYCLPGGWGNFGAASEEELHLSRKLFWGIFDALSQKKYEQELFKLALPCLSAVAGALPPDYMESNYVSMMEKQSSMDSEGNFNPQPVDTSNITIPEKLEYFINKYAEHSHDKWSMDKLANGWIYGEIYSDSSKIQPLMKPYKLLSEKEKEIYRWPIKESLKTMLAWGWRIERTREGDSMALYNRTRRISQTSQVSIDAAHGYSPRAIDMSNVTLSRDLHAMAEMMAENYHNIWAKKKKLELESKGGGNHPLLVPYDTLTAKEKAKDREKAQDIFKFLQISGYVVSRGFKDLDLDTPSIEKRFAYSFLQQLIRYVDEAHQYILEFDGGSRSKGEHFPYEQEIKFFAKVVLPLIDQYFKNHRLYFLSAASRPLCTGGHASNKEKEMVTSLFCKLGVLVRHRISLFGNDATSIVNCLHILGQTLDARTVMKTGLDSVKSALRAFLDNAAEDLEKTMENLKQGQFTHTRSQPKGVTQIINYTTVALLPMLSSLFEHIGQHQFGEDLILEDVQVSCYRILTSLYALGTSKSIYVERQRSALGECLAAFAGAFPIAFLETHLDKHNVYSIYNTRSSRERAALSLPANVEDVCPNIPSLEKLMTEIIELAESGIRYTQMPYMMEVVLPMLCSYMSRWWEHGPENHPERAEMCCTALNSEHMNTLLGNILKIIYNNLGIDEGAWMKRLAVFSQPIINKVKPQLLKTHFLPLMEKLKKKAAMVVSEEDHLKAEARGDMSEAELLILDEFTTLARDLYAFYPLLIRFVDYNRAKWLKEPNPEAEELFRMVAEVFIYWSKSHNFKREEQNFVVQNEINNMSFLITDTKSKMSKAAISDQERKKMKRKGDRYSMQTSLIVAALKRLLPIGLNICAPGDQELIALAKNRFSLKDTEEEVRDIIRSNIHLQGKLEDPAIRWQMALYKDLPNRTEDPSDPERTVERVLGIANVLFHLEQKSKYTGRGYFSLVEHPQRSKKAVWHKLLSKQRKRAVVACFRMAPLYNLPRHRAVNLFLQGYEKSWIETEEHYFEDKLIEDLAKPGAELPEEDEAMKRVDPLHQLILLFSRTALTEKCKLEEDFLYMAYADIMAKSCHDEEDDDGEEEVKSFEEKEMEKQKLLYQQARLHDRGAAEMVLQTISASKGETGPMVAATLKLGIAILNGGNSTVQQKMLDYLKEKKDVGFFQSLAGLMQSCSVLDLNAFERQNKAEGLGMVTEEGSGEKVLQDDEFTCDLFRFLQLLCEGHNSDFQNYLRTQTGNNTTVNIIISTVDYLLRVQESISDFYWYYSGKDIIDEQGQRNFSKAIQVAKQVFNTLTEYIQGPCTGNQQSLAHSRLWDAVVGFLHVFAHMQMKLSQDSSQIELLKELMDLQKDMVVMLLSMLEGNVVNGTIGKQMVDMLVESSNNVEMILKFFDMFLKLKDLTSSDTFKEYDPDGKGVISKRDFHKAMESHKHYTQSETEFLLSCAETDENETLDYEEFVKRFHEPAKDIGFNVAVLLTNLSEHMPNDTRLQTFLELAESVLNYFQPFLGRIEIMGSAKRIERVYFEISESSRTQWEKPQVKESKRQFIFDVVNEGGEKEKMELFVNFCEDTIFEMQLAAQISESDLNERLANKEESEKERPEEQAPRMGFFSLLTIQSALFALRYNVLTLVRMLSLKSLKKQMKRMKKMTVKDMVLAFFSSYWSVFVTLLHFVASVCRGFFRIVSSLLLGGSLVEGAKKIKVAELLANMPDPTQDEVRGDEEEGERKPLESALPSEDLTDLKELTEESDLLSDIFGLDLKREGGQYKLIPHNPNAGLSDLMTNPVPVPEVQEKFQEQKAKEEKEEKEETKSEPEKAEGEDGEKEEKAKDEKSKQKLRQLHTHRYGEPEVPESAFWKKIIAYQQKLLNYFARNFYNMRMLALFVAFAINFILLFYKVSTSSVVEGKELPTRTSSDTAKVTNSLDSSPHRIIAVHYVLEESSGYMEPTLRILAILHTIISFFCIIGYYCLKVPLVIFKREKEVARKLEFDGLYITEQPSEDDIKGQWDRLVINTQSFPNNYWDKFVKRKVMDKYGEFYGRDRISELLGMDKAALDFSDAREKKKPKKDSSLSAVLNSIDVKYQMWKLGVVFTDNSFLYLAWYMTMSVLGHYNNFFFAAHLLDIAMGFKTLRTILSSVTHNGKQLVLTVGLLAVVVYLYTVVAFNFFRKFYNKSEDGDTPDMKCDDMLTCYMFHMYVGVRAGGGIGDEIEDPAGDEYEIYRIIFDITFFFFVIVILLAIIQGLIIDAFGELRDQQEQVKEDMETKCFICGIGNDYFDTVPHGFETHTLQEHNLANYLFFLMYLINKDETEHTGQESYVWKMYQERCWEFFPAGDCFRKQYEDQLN
Method: Mouse ventricular cardiomyocytes were isolated enzymatically from hearts of male C57BL/6J mouse (10–12 weeks old, Jackson Laboratory) as previously described with minor modifications ([66]). Briefly, mice were injected with heparin (500 U/kg body weight) and anesthetized with isoflurane (2 to 5%) to a verified deep surgical plane, whereupon the heart was excised, resulting in euthanasia by exsanguination. Hearts were excised and retrogradely perfused with constant flow on a Langendorff apparatus (37 °C) with Ca^2+-free normal Tyrode’s solution, gassed with 100% O2. Collagenase type II (Worthington Biochemical Co) and protease type XIV (Sigma-Aldrich) were used for enzymatic digestion. Ventricular cardiomyocytes were then mechanically dissociated and filtered through a nylon mesh and allowed to sediment in Tyrode’s solution. The [Ca^2+] of the Tyrode’s solution was then raised to 0.5 mM in stepwise fashion, and cardiomyocytes were kept at room temperature in this solution until use. All animal handling and laboratory procedures were in accordance with the approved protocols of the University of California, Davis Institutional Animal Care and Use Committee conforming to the Guide for the Care and Use of Laboratory Animals published by the US National Institutes of Health (eighth edition, 2011).
Ca^2+ activity was imaged via confocal microscopy (Bio-Rad, Radiance 2100, 40× objective) in the line scan mode (166 lines/s; ex 488 nm, em >505 nm). Ca^2+ sparks were recorded from ventricular cardiomyocytes permeabilized with saponin (50 μg/ml) for 1 min in internal solution containing (in mM) 10 HEPES, 1 EGTA, 1 free MgCl2 (with free [Ca^2+] adjusted to 50 nM using MaxChelator), 120 K-aspartate, 10 reduced glutathione, 5 ATP, 5 phosphocreatine di-Na, creatine phosphokinase 5 U/ml, and dextran (MW: 40,000) 8% at pH 7.20. Cardiomyocytes were immediately washed with saponin-free internal solution and then superfused with internal solution (50 nM Ca^2+free) containing the Ca^2+-sensitive indicator, Fluo-4 pentapotassium salt (10 μM, Invitrogen). Ca^2+ spark parameters were analyzed over a 10 s period from each line scan recording. Ca^2+ transients and diastolic Ca^2+ release events were recorded from intact ventricular cardiomyocytes loaded for 30 min at room temperature with Fluo-4 AM (10 μM, Invitrogen) and Pluronic F-127 (0.02%, Invitrogen) followed by wash and de-esterification for 30 min in Tyrode’s solution containing (in mM) NaCl 140, KCl 4, CaCl2 1.8, MgCl2 1, HEPES 5, Na-HEPES 5, and glucose 5.5 at pH 7.40. To evoke Ca^2+ transients, intact cardiomyocytes were paced at 1 Hz in a field stimulation chamber (Warner Instruments) at room temperature. Ca^2+ activity was assessed in paired fashion before and after incubating cardiomyocytes with fusidic acid (FA) for 6 min at each concentration. ImageJ was used for image processing and analysis, and Ca^2+ sparks were analyzed using the SparkMaster plugin ([67]). Chemical reagents were purchased from Sigma-Aldrich unless indicated otherwise.
Statistical analyses were performed using GraphPad Prism 9. Normality was verified using the D’Agostino & Pearson test. Repeated measures (at different FA concentrations) one-way ANOVA with Geisser–Greenhouse correction followed by the Dunnett’s multiple comparison post-hoc test was used for normally distributed data to determine individual differences in matched responses. […]

[1] = single-cycle kinetics, global analysis

For CC(=O)O[C@H]1C[C@@]2(C)[C@@H](C[C@@H](O)[C@H]3[C@@]4(C)CC[C@@H](O)[C@@H](C)[C@@H]4CC[C@@]32C)/C1=C(\CCC=C(C)C)C(=O)O [FA, (2Z)-2-[(3R,4S,5S,8S,9S,10S,11R,13R,14S,16S)-16-acetyloxy-3,11-dihydroxy-4,8,10,14-tetramethyl-2,3,4,5,6,7,9,11,12,13,15,16-dodecahydro-1H-cyclopenta[a]phenanthren-17-ylidene]-6-methylhept-5-enoic acid], the “KD (SPR)” value (NTR of mouse RyR2; NTR with His-MBP tag) was “low micromolar”, the “KD (SPR), another component of heterogenous model fit” value (NTR of mouse RyR2; [1]) was “nanomolar” and the “KD (SPR), one component of heterogenous model fit” value (NTR of mouse RyR2; [1]) was “micromolar”. The “Ca2+ spark signal mass relative to 0 nM FA” value (RyR2; 1 μM FA, p = 0.011) was “decreased significantly”, the “Ca2+ spark signal mass relative to 0 nM FA” value (RyR2; 10 μM FA, p = 0.001) was “decreased significantly” and the “Ca2+ spark frequency over [FA] relative to 0 nM FA” value (RyR2; [Ca2+]i 50 nM, 6 min exposures) was “did not detect significant differences”. For the same compound, the “Ca2+ spark signal mass, meancell slope” value (RyR2; increasing [FA], p = 0.0007) was −0.336 F/F0 × μm × s/log10(μM) and the “Ca2+ spark frequency, meancell slope” value (RyR2; increasing [FA], p = 0.115) was −0.082 sparks/100 μm/s/log10(μM).
